{
  "source": "paper PMC8067507",
  "about": "“Aryl Urea Based Scaffolds for Multitarget Drug Discovery in Anticancer Immunotherapies” (Pharmaceuticals, 2021)",
  "key": {"[1]": {"tested_on": "Jurkat T cells", "experiment": "Jurkat T cell proliferation and population distribution in co-cultures with HT-29", "assay_type": "cell-based, human", "conditions": "co-cultured with HT-29, 10 μM, 24 h", "source_text": "We also determine Jurkat T cell proliferation in those co-cultures from the corresponding media by flow cytometry. […] All samples provided similar population distribution except by those treated with Compound 16, in which an enhancement of size and complexity is observed.\nData provided in Figure 7 show the density of living Jurkat T cells in the treated co-cultures with HT-29. The graphics include cell distribution population by size and complexity in each case.\n(§1) In 12-well plates, 10^5 HT-29 cells per well were seeded and incubated for 24 h with cell culture medium supplemented with IFN-γ (10 ng/mL; human, Invitrogen®) then medium was change by one containing 4 × 10^5 Jurkat T cells per well and 10 μM of the corresponding compound or DMSO for the control. After 24 h of incubation, supernatants were collected to determine Jurkat T cell living cells and, on the other hand, HT-29 cells were collected with trypsin. Both types of suspension cells were counted with the Neubauer chamber and trypan blue and also by flow cytometry."}, "[2]": {"tested_on": "HT-29 cells", "experiment": "Cell proliferation evaluation in co-cultures: HT-29 with Jurkat T cells", "assay_type": "cell-based, human", "conditions": "24 h", "experimental": "We also studied the effect of Compounds 16, 23, 26 and 33 on tumor cell proliferation in the presence of PD-1 expressing Jurkat T-cells. For this assay, first interferon γ stimulated HT-29 cells were treated for 24 h with the selected compounds at 10 µM in presence of Jurkat T cells. Then, living cells were counted using trypan blue and a Neubauer chamber and by flow cytometry.\nas §1"}, "[3]": {"molecular_target": "PD-L1 (Homo sapiens, UniProt Q9NZQ7)", "sequence (Q9NZQ7 19-290)": "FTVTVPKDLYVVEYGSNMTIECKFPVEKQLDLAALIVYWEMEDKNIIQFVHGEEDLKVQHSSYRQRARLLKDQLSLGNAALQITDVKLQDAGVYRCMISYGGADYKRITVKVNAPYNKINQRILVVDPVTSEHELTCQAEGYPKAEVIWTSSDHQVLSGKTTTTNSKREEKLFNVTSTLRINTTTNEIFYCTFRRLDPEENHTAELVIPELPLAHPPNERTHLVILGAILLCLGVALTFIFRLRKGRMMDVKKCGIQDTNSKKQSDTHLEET", "experiment": "PD-L1 quantification by flow cytometry in HT-29", "assay_type": "cell-based", "conditions": "HT-29, 10 μM, 24 h, referred to control (DMSO)", "experimental": "(§2) We evaluated the effect of the selected compounds on PD-L1 and on c-Myc proteins by flow cytometry after 24 h treatment at 10 μM concentration of compounds. Both, PD-L1 and c-Myc were relatively determined using DMSO treated cells as a negative control and BMS-8 as a positive one.\n(§3) For the detection of total PD-L1 and c-Myc, cancer cells were seeded (3 × 10^5 cells/well) in 6-well plates and were incubated with the corresponding compounds for 24 h. Then they were collected, fixed, treated with 0.5% Triton^TM X-100 and stained with Alexa Fluor® 647 Rabbit monoclonal Anti-PD-L1 (ab215251) and FITC Rabbit monoclonal anti-c-Myc (ab223913).\n(§4) We also checked results performing ELISA tests. For ELISA tests, lysates were collected, protein quantification was carried out by Bradford test and, then, PD-L1 and c-Myc were quantified using Human PD-L1 ELISA Kit 28-8 (ab214565) and c-Myc (Total) Human ELISA Kit (KHO2041), respectively, according to the manufacturer’s instructions."}, "[4]": {"tested_on": "c-Myc", "experiment": "c-Myc quantification by flow cytometry in HT-29", "assay_type": "cell-based, human", "conditions": "HT-29, 10 μM, 24 h, referred to control (DMSO)", "experimental": "as §2, §3, §4"}},
  "data": [
    {"smiles": "COc1ccc(/C=C\\c2cccc(NC(=O)Nc3ccc(Br)cc3)c2)cc1", "note": "[Compound 16]", "values": [
      {"measurement": "effect on Jurkat T cell proliferation", "setting": "[1]", "result": "hardly affect proliferation of T cell"},
      {"measurement": "effect on T cell size and complexity (morphology)", "setting": "[1]", "result": "an increase on their size and complexity"},
      {"measurement": "inhibition at 10 µM", "setting": "[2]; Homo sapiens, HT-29, co-cultured with Jurkat T-cells", "result": "~90", "unit": "%"},
      {"measurement": "Living HT-29 cell proliferation (%)", "setting": "[2]; IFN-γ stimulated HT-29 co-cultured with Jurkat T cells, 10 µM, five experiments", "result": 9, "unit": "%"},
      {"measurement": "PD-L1 (%) relative expression", "setting": "[3]", "result": "17 ± 5", "unit": "%"},
      {"measurement": "c-Myc (%) relative expression", "setting": "[4]", "result": "41 ± 10", "unit": "%"}
    ]}
  ]
}
